In patent publication US20120015012A1, “COSMETIC COMPOSITION CONTAINING KETOGLUCONIC ACID DERIVATIVES” (SOLIANCE, priority 2009, published 2012):
Where a name gives a salt, the structure may show the parent alone. Marks after values point to notes of the source that are not given here.

Tests used:
[1] = system: normal adult human dermal fibroblasts; assay: Neosynthesis of hyaluronic acid in normal adult human dermal fibroblasts cultured in monolayers (ELISA on culture media); assay type: cell-based; conditions: incubation 24 hours
Protocol: (§1) Confluent monolayers of normal human dermal fibroblasts were obtained by culturing cells obtained from abdominoplasty performed on a person. The fibroblasts were isolated by enzymatic digestion using Dispase and collagenase and were then cultured in DMEM (Dulbecco's Modified Eagle's Medium) and Ham's F12 medium in (1:1) ratio containing 10% of fetal calf serum, antibiotics and amphotericin B.
The reference activator used is transforming growth factor β (TGF-β) at a concentration of 10 ng/ml.
(§2) The fibroblasts were incubated for 24 hours at 37° C., under a humid atmosphere and 5% CO2, in the absence (culture medium only) or in the presence of the reference product, or of increasing concentrations of test products (10, 100 and 1000 μg/ml) for both products. The test products were dissolved directly in the culture medium.
At the end of the incubation period, the hyaluronic acid contained in the culture media was quantified using a sensitive and specific ELISA kit.
At the end of the incubation period, the proteins contained in the cellular lysates were quantified by Bradford's spectrocolorimetric method.
The results are given in the form of ng of hyaluronic acid per μg of total proteins of the cell lawn (mean±standard deviation, SD). The statistical significance of the differences observed between the “Control” and “Reference Product” conditions was evaluated by a Student test (Student t-test). The statistical significance of the differences observed between the “Control” and “Test Products” conditions was evaluated product by product, by a one-way analysis of variance (One Way ANOVA or One Way Anova on Ranks+), followed, when necessary, by a Holm-Sidak or Dunn's test (*: p<0.05).

[2] = system: normal adult human dermal fibroblasts; assay: Neosynthesis of elastin in normal adult human dermal fibroblasts cultured in monolayers (spectrocolorimetric method on culture media); assay type: cell-based; conditions: incubation 96 hours; for increase in the neosynthesis of elastin: versus control
Protocol: as §1, with “The fibroblasts are isolated by” for “The fibroblasts were isolated by”, “collagenase and then cultivated” for “collagenase and were then cultured”, “and then cultivated in DMEM” for “were then cultured in DMEM”
The reference activator used is ascorbic acid at a concentration of 100 μg/ml.
as §2, with “96” for “24”, “under” for “under a”, “(10;” for “(10,”
At the end of the incubation time, the elastin contained in the culture media was quantified by a spectrocolorimetric method.
At the end of the incubation time, the proteins contained in the cellular lysates were quantified by Bradford's spectrocolorimetric method.
The results are given in the form of ng of elastin per μg of total proteins of the cell lawn (mean±standard deviation, SD). The statistical significance of the differences observed between the “Control” and “Reference Product” conditions was evaluated by a Student test (Student t-test). The statistical significance of the differences observed between the “Control” and “Test Products” conditions was evaluated product by product, by a one-way analysis of variance (One Way ANOVA or One Way Anova on Ranks+), followed, when necessary, by a Holm-Sidak or Dunn's test (*: p<0.05).

Row | Compound | production of hyaluronic acid, % control ([1]; 10 μg/ml) [% control] | production of hyaluronic acid, mean value ([1]; 10 μg/ml) | production of hyaluronic acid, % control ([1]; 100 μg/ml) [% control] | production of hyaluronic acid, mean value ([1]; 100 μg/ml) | increase in the neosynthesis of hyaluronic acid ([1]; 100 μg/ml, versus control) [%] | production of hyaluronic acid, % control ([1]; 1000 μg/ml) [% control] | production of hyaluronic acid, mean value ([1]; 1000 μg/ml) | increase in the neosynthesis of hyaluronic acid ([1]; 1000 μg/ml, versus control) [%] | production of elastin, % control ([2]; 10 μg/ml) [% control] | production of elastin, mean value ([2]; 10 μg/ml) | production of elastin, % control ([2]; 100 μg/ml) [% control] | production of elastin, mean value ([2]; 100 μg/ml) | increase in the neosynthesis of elastin ([2]; 100 μg/ml) [%] | production of elastin, % control ([2]; 1000 μg/ml) [% control] | production of elastin, mean value ([2]; 1000 μg/ml) | increase in the neosynthesis of elastin ([2]; 1000 μg/ml) [%] | other results
1 | O=C(O)C(=O)C(O)C(O)C(O)CO (stereo not shown) [2KO, calcium salt of 2-keto-(D)-gluconic acid] | 101.2 | 18.5 ng of hyaluronic acid per μg of total proteins | 136.3 | 25.0* ng of hyaluronic acid per μg of total proteins | 36.3 | 192.7 | 35.3* ng of hyaluronic acid per μg of total proteins | 92.7 | 139.7 | 12.6* ng of elastin per μg of total proteins | 144.6 | 13.1* ng of elastin per μg of total proteins | 44.6 | 135.8 | 12.3* ng of elastin per μg of total proteins | 35.8 | increase in the neosynthesis of elastin ([2]; 10 μg/ml): 39.7%
2 | TGF-β: reference activator, transforming growth factor β (TGF-β), used at 10 ng/ml [reference compound] |  |  |  |  |  |  |  |  |  |  |  |  |  |  |  |  | production of hyaluronic acid, % control ([1]; 10 ng/ml): 226.3 % control; production of hyaluronic acid, mean value ([1]; 10 ng/ml): 41.5*** ng of hyaluronic acid per μg of total proteins; increase in fibroblast production of hyaluronic acid ([1]; 10 ng/ml, versus control): 126.3%
3 | O=C([O-])C(O)C(O)C(O)C(=O)CO.[K+] (stereo not shown) [5KO, potassium salt of 5-keto-(D)-gluconic acid] | 123.3 | 22.6* ng of hyaluronic acid per μg of total proteins | 144.9 | 26.6* ng of hyaluronic acid per μg of total proteins | 44.9 | 144.0 | 26.4* ng of hyaluronic acid per μg of total proteins | 44.0 | 104.8 | 9.5 ng of elastin per μg of total proteins | 118.9 | 10.7 ng of elastin per μg of total proteins | 18.9 | 184.4 | 16.7* ng of elastin per μg of total proteins | 84.4 | increase in the neosynthesis of hyaluronic acid ([1]; 10 μg/ml, versus control): 23.3%
4 | O=C1O[C@H]([C@@H](O)CO)C(O)=C1O [Ascorbic acid, ascorbic acid, reference compound] |  |  |  |  |  |  |  |  |  |  | 140.3 | 12.7*** ng of elastin per μg of total proteins | 40.3 |  |  |  | 
